# Experiments:
# HEK293 = assay: Viability assay (CellTiter-Glo), HEK293; type: cell-based, human; details: for Cell viability (%) HEK293 120 μM: CellTiter-Glo
# Description: (§1) The screen identified several compounds that reduced NO in activated microglia and macrophages. The tested compounds included achiral and chiral imidazodiazepines and benzodiazepines. In general, microglia were more sensitive to compound treatment with more pronounced reduction of NO than macrophages. […] Cell viability assays with HEK293 (kidney) and HepG2 (liver) cells were conducted in a concentration dependent manner. A limited number of compounds, such as GL-III-63, GL-III-76A, and GL-III-77, were toxic at 120 μM.
# (§2) Viability assay. Human liver hepatocellular carcinoma (HEPG2) and human embryonic kidney 293T (HEK293T) cell lines were purchased (ATCC) and cultured in 75 cm^2 flasks (CellStar). Cells were grown in DMEM/High Glucose (Hyclone, #SH3024301) media to which non-essential amino acids (Hyclone, #SH30238.01), 10 mM HEPES (Hyclone, #SH302237.01), 5×10^6 units of penicillin and streptomycin (Hyclone, #SV30010), and 10% of heat inactivated fetal bovine serum (Gibco, #10082147) were added. Cells were harvested using 0.05% Trypsin (Hyclone, #SH3023601), washed with PBS, and dispensed into sterile white, optical bottom 384-well plates (NUNC, #142762). After three hours, small molecule DMSO solutions were transferred with a Tecan Freedom EVO liquid handling system equipped with a 100 nL pin tool (V&P Scientific). The controls were 3-dibutylamino-1-(4-hexyl-phenyl)-propan-1-one (25 mM in DMSO, positive control) and DMSO (negative control). The cells were incubated for 48 hours followed by the addition of CellTiter-Glo™, a luminescence-based cell viability assay (Promega, Madison, WI). All luminescence readings were performed on a Tecan Infinite M1000 plate reader. The assay was carried out in quadruplet with two independent runs. The data were analyzed by nonlinear regression.
# Mouse microglia [1] = assay: NO production (Griess assay), LPS/IFNγ-activated mouse microglia; type: cell-based; details: for inhibition at 10 µM: Mus musculus, Microglia, 24 h; for Inhibition of NO production (%) Mouse microglia 10 μM: 24 hours, 1 μM GABA, LPS/IFNγ
# RAW macrophages [2] = assay: NO production (Griess assay), LPS/IFNγ-activated RAW264.7 macrophages; type: cell-based, mouse; details: for inhibition at 10 µM: Mus musculus, Macrophage, 24 h; for Inhibition of NO production (%) RAW macrophages 10 μM: 24 hours, 1 μM GABA, LPS/IFNγ
# Mouse microglia [3] = assay: Cell viability (CellTiter-Glo), mouse microglia; type: cell-based; details: 50 μM, CellTiter-Glo
# In short: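 Mouse microglia (1×10^6 cells/mL) activated with 50 ng/ml LPS plus 150 U/mL IFNγ, incubated with compounds ~24 h at 37° C. Viability of remaining cells read by CellTiter-Glo luminescence after supernatant removal for Griess NO assay; […].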
# HEPG2 = assay: Viability assay (CellTiter-Glo), HEPG2; type: cell-based, human; details: for Cell viability (%) HEPG2 120 μM: CellTiter-Glo
# Description: as §1, §2
# RAW macrophages [4] = assay: Cell viability (CellTiter-Glo), RAW macrophages; type: cell-based, mouse; details: CellTiter-Glo
# MOR (μ opioid receptor) = target: T1, MOR (μ opioid receptor) (Homo sapiens, UniProt P35372); assay: MOR radioligand binding ([3H]-DAMGO, HEK293 cell homogenates); details: [3H]-DAMGO
# T1 construct: expressed in transfected cells; host or cells: HEK293
# KOR (κ opioid receptor) = target: T2, KOR (κ opioid receptor) (Homo sapiens, UniProt P41145); assay: KOR radioligand binding ([3H]-U69593, HEK293 cell homogenates); details: [3H]-U69593
# T2 construct: expressed in transfected cells; host or cells: HEK293 (stably transfected)
# DOR (δ opioid receptor) = target: T3, DOR (δ opioid receptor) (Homo sapiens, UniProt P41143); assay: DOR radioligand binding ([3H]-DADLE, HEK293 cell homogenates); details: Percent inhibition at 10,000 nM; [3H]-DADLE
# T3 construct: expressed in transfected cells; host or cells: HEK293
# human KOR = target: T4, human KOR (Homo sapiens, UniProt P41145); assay: BRET recruitment assay (GαoA) in HEK293T cells; type: cell-based; details: for KOR agonism (in words): BRET recruitment assay
# T4 construct: expressed in transfected cells; host or cells: HEK293T
# Description: HEK293 cells were transfected with GαoA-RLuc, Gβ3, Gγ8-GFP2 and human KOR and treated with increasing concentrations of GL-I-30 or full agonist salvinorin A.
# The BRET recruitment assays were performed in HEK293T cells according to previously reported procedures with minor modifications. Briefly, the cells were co-transfected overnight with GαoA-RLuc, Gβ3, Gγ8-GFP2 and human KOR receptor at a 1:1:1:1 ratio. The next day, cells were seeded (˜40,000 cells/well) into poly-L-Lysine coated 96-well white clear bottom cell culture plates in DMEM containing 1% dialyzed FBS. 24 hours later, the 96-well plates bottom were covered with white backing (PerkinElmer) and the culture medium was removed. Immediately, the cells were washed with 80 μL/well of assay buffer (1× HBSS, 20 mM HEPES, 1 mg/ml BSA, pH 7.4). Then the cells were treated with 80 μL of drugs in assay buffer for 10 min at room temperature, follow by addition of 20 μL/well of RLuc substrate and incubated for another 10 min. Plates were read in a Mithras LB940 reader for the RLuc Luminescence (400 nm) and GFP2 (515 nm) emission and the ratio of GFP2/RLuc (n=24) was analyzed by non-linear regression using GraphPad Prism 8.
# [5] = tested on: BZR (benzodiazepine site of GABAAR); assay: GABAAR/BZR binding, rat brain homogenate with 3H-flunitrazepam; details: rat brain homogenate, 3H-flunitrazepam
# In short: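 Primary screen at 10,000 nM; where displacement exceeded 50%, Ki came from nonlinear regression of concentration–response data (n=6). Radioligand was 3H-flunitrazepam at roughly Kd on rat brain homogenate, usually 90 min, room temperature, dark, with 10 μM reference compound for nonspecific binding, then filtration and scintillation counting.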
# Swiss Webster mice = assay: Rotarod test; details: 5 mg/kg
# [6] = Percent inhibition at 10,000 nM
# T4 sequence (P41145 whole entry): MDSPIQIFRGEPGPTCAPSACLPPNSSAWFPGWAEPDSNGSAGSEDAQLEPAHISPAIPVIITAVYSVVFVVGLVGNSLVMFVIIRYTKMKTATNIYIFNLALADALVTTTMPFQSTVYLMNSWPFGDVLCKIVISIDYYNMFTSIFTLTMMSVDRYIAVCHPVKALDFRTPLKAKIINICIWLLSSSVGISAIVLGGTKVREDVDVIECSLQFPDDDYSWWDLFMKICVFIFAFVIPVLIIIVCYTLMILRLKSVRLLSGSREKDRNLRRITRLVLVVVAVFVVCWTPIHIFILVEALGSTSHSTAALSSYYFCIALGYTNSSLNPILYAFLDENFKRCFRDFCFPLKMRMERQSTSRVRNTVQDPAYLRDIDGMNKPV
# T4 sequence (P09471 2-354 partner limits assumed): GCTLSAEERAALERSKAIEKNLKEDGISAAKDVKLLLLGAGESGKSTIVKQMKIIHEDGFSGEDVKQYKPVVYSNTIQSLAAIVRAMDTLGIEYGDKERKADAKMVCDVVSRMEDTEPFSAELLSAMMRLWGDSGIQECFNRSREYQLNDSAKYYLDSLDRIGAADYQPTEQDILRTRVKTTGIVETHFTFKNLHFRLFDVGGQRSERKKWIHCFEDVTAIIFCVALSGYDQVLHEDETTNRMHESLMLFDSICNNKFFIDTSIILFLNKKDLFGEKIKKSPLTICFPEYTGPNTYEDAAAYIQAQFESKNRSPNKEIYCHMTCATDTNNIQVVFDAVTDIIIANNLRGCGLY
# T4 sequence (P16520 whole entry partner): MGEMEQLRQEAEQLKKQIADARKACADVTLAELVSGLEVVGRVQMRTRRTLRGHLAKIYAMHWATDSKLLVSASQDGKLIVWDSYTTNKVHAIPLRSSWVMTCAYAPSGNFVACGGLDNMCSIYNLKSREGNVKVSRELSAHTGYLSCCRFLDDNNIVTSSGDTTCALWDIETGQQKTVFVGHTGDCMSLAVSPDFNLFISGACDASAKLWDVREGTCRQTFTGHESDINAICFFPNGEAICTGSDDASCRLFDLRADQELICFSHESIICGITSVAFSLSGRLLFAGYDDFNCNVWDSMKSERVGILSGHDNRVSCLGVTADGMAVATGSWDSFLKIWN
# T4 sequence (Q9UK08 1-67 partner limits assumed): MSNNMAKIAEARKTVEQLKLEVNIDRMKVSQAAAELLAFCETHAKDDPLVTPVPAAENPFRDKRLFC
# T1 sequence (P35372 whole entry, species assumed): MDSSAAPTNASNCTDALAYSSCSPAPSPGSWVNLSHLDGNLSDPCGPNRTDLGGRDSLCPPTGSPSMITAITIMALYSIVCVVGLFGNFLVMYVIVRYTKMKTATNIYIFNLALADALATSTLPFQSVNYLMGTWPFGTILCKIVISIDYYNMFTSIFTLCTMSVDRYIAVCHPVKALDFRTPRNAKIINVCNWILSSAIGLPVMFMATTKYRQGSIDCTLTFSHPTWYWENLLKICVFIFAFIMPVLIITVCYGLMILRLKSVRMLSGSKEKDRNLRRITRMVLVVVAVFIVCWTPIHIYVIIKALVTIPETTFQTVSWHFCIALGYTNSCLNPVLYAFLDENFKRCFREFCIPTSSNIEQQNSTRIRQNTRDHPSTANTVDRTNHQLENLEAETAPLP
# T2 sequence (P41145 whole entry): as the sequence (P41145 whole entry) above
# T3 sequence (P41143 whole entry): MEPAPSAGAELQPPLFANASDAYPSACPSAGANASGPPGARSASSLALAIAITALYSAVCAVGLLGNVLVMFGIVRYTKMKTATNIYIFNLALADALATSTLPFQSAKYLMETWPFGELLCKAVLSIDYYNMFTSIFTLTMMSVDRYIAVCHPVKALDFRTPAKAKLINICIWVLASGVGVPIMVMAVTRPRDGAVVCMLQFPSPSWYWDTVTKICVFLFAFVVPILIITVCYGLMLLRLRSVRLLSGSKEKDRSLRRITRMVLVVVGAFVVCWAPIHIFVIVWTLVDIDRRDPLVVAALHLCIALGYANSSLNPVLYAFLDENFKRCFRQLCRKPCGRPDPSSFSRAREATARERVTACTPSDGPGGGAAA
Structure (SMILES),Cell viability (%) HEK293 120 μM (HEK293),Cell viability (%) Mouse microglia 50 μM (Mouse microglia [3]),Cell viability (%) HEPG2 120 μM (HEPG2),Cell viability (%) RAW macrophages 50 μM (RAW macrophages [4]),Inhibition of NO production (%) Mouse microglia 10 μM (Mouse microglia [1]),Inhibition of NO production (%) RAW macrophages 10 μM (RAW macrophages [2]),also measured
"CC(C)c1noc(-c2ncn3c2[C@@H](C)N=C(c2ccccc2F)c2cc(Br)ccc2-3)n1 [GL-IV-01, (R)-5-(8-Bromo-6-(2-fluorophenyl)-4-methyl-4H-benzo[f]imidazo[1,5-a][1,4]diazepin-3-yl)-3-isopropyl-1,2,4-oxadiazole]",72 ± 8%,100 ± 9%,100 ± 9%,100 ± 9%,–,–,inhibition at 10 µM (Mouse microglia [1]): 56 ± 11%; inhibition at 10 µM (RAW macrophages [2]): 17 ± 7%
C#Cc1ccc2c(c1)C(c1ccccc1F)=NC(C)c1c(C(=O)[O-])ncn1-2.[Na+] (centres unmarked) [GL-IV-17],67 ± 5%,89 ± 9%,93 ± 8%,100 ± 5%,41 ± 5%,5 ± 5%,–
C#Cc1ccc2c(c1)C(c1ccccc1F)=NC(C)c1c(C(=O)OC(C)(C)C)ncn1-2 (centres unmarked) [GL-I-30],–,–,–,–,–,–,"MOR % (MOR (μ opioid receptor); [6]): 54%; Ki (MOR (μ opioid receptor); read-out: MOR affinity Ki): 1850 nM; KOR % (KOR (κ opioid receptor); [6]): 95%; Ki (KOR (κ opioid receptor); concentration-dependent, read-out: KOR (Ki)): 27 nM; DOR % (DOR (δ opioid receptor)): 7%; KOR agonism (in words) (human KOR): full KOR agonism; KOR agonism (in words) (human KOR; listed as GL-1-30): full KOR agonist; efficacy in comparison to full agonist salvinorin A (human KOR; BRET, HEK293T cells): 100%; EC50 (human KOR; BRET, HEK293T cells, read-out: EC50, recruitment of GαoA protein to KOR): 32.3 nM; BZR % [5, 6]: 96%; Ki [5]: 177 nM"
C#Cc1ccc2c(c1)C(c1ccccc1)=NCC(=O)N2C [QH-II-66],81 ± 2%,97 ± 11%,100 ± 4%,100 ± 12%,54 ± 9%,17 ± 6%,–
C#Cc1ccc2c(c1)C(c1ccccc1F)=NC(C)c1c(C(=S)NCC)ncn1-2 (centres unmarked) [GL-III-86],66 ± 10%,99 ± 15%,100 ± 8%,100 ± 14%,39 ± 7%,7 ± 4%,–
C#Cc1ccc2c(c1)C(c1ccccc1F)=N[C@H](C)C(=O)N2 [GL-I-62],79 ± 7%,92 ± 7%,89 ± 10%,100 ± 3%,13 ± 7%,3 ± 2%,–
CC1N=C(c2ccccc2F)c2cc(Br)ccc2-n2cnc(-c3cnco3)c21 (racemic) [GL-III-76A],0 ± 3%,100 ± 9%,0 ± 2%,97 ± 4%,58 ± 9%,6 ± 3%,"toxicity at 120 μM (in words) (HEK293; HEK293, 120 μM): toxic; toxicity at 120 μM (in words) (HEPG2; HepG2, 120 μM): toxic"
CC1N=C(c2ccccc2F)c2cc(Br)ccc2-n2cnc(C(=O)[O-])c21.[Na+] (centres unmarked) [GL-IV-18],88 ± 5%,81 ± 10%,80 ± 14%,98 ± 5%,63 ± 9%,10 ± 7%,–
C#Cc1ccc2c(c1)C(c1ccccc1F)=NC(C)c1c(C(=S)NC3CC3)ncn1-2 (centres unmarked) [GL-III-87],90 ± 10%,100 ± 2%,100 ± 5%,100 ± 7%,23 ± 7%,0 ± 1%,–
CC1N=C(c2ccccc2F)c2cc(Br)ccc2-n2cnc(C=O)c21 (centres unmarked) [GL-III-75],73 ± 2%,87 ± 7%,74 ± 6%,100 ± 2%,44 ± 2%,3 ± 5%,–
CCc1noc(-c2ncn3c2CN=C(c2ccccn2)c2cc(Br)ccc2-3)n1 [GL-III-99],87 ± 11%,95 ± 9%,93 ± 7%,100 ± 9%,49 ± 5%,19 ± 3%,–
"CC(C)c1noc(-c2ncn3c2[C@@H](C)N=C(c2ccccc2F)c2cc(C4CC4)ccc2-3)n1 [GL-IV-04, (R)-5-(8-Cyclopropyl-6-(2-fluorophenyl)-4-methyl-4H-benzo[f]imidazo[1,5-a][1,4]diazepin-3-yl)-3-isoproyl-1,2,4-oxadiazole]",71 ± 6%,86 ± 6%,100 ± 6%,100 ± 7%,–,–,inhibition at 10 µM (Mouse microglia [1]): 62 ± 8%; inhibition at 10 µM (RAW macrophages [2]): 11 ± 2%
"CN1C(=O)CN=C(c2ccccc2)c2cc(Cl)ccc21 [diazepam, reference compound]",–,–,–,–,–,–,sedation (rotarod) (Swiss Webster mice): sedating
CCOC(=O)c1ncn2c1[C@@H](C)N=C(c1ccccn1)c1cc(C#C[Si](C)(C)C)ccc1-2 [GL-II-18],53 ± 10%,89 ± 9%,100 ± 8%,99 ± 2%,49 ± 10%,11 ± 4%,–
